Test results: the supplement of paper PMC9663587

Experiments:
[1] = compound: CCN1CCN(Cc2ccc(Nc3ncc(F)c(-c4cc(F)c5nc(C)n(C(C)C)c5c4)n3)nc2)CC1; test: increase in dead-cell fraction, 72 h; higher = more death;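 also: breast cancer cell lines in 384-well plates, stained with Hoechst plus LIVE/DEAD far red dye and imaged, cells above an LDR intensity threshold counted dead, Hoechst-negative corpses included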
Neratinib/HKI272 = compound: CCOc1cc2ncc(C#N)c(Nc3ccc(OCc4ccccn4)c(Cl)c3)c2cc1NC(=O)/C=C/CN(C)C [Neratinib/HKI272]; test: as above
[2] = compound: CC(=O)c1c(C)c2cnc(Nc3ccc(N4CCNCC4)cn3)nc2n(C2CCCC2)c1=O; test: as above
LEE011/Ribociclib = compound: CN(C)C(=O)c1cc2cnc(Nc3ccc(N4CCNCC4)cn3)nc2n1C1CCCC1 [LEE011/Ribociclib]; test: as above
Flavopiridol [3] = compound: T1, CN1CC[C@H](c2c(O)cc(O)c3c(=O)cc(-c4ccccc4Cl)oc23)[C@H](O)C1 [Flavopiridol]; test: as above
[4] = compound: CCc1cnn2c(NCc3ccc[n+]([O-])c3)cc(N3CCCC[C@H]3CCO)nc12; test: as above
BSJ-03-123 = compound: CC(=O)c1c(C)c2cnc(Nc3ccc(N4CCN(CCOCCOCCOCCNC(=O)COc5cccc6c5C(=O)N(C5CCC(=O)NC5=O)C6=O)CC4)cn3)nc2n(C2CCCC2)c1=O [BSJ-03-123]; test: as above
THZ1 [5] = compound: T2, CN(C)C/C=C/C(=O)Nc1ccc(C(=O)Nc2cccc(Nc3ncc(Cl)c(-c4c[nH]c5ccccc45)n3)c2)cc1 [THZ1]; test: as above
THZ531 = compound: CN(C)C/C=C/C(=O)Nc1ccc(C(=O)N2CCC[C@@H](Nc3ncc(Cl)c(-c4c[nH]c5ccccc45)n3)C2)cc1 [THZ531]; test: GR value, 72 h; higher = faster growth (1 = untreated, <0 = killing);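 also: breast cancer and non-malignant breast epithelial lines, nine half-log doses, viable cells counted by Hoechst and LIVE/DEAD dye imaging versus time-zero plates and DMSO controls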
[6] = compound: CC(=O)c1c(C)c2cnc(Nc3ccc(N4CCNCC4)cn3)nc2n(C2CCCC2)c1=O; test: as above
Flavopiridol [7] = compound: T1, Flavopiridol; test: as above
THZ1 [8] = compound: T2, THZ1; test: as above

## BT474
[1]; 0.001 µM
  increase in dead-cell fraction: -0.005
[1]; 0.003162 µM
  increase in dead-cell fraction: -0.0017
[1]; 0.01 µM
  increase in dead-cell fraction: 0.0057
[1]; 0.03162 µM
  increase in dead-cell fraction: 0.0071
[1]; 0.1 µM
  increase in dead-cell fraction: 0.0213
[1]; 0.3162 µM
  increase in dead-cell fraction: 0.01
[1]; 1 µM
  increase in dead-cell fraction: 0.0104
[1]; 3.162 µM
  increase in dead-cell fraction: 0.0016
[1]; 10 µM
  increase in dead-cell fraction: 0.0194
Neratinib/HKI272; 0.0003162 µM
  increase in dead-cell fraction: 0.0014
Neratinib/HKI272; 0.001 µM
  increase in dead-cell fraction: 0.0075
Neratinib/HKI272; 0.003162 µM
  increase in dead-cell fraction: 0.0456
Neratinib/HKI272; 0.01 µM
  increase in dead-cell fraction: 0.235
Neratinib/HKI272; 0.03162 µM
  increase in dead-cell fraction: 0.359
Neratinib/HKI272; 0.1 µM
  increase in dead-cell fraction: 0.369
Neratinib/HKI272; 0.3162 µM
  increase in dead-cell fraction: 0.38
Neratinib/HKI272; 1 µM
  increase in dead-cell fraction: 0.438
Neratinib/HKI272; 3.162 µM
  increase in dead-cell fraction: 0.471
[2]; 0.0003162 µM
  increase in dead-cell fraction: -0.0048
[2]; 0.001 µM
  increase in dead-cell fraction: -0.0003
[2]; 0.003162 µM
  increase in dead-cell fraction: -0.0027
[2]; 0.01 µM
  increase in dead-cell fraction: 0.0006
[2]; 0.03162 µM
  increase in dead-cell fraction: 0.0074
[2]; 0.1 µM
  increase in dead-cell fraction: 0.0103
[2]; 0.3162 µM
  increase in dead-cell fraction: 0.0169
[2]; 1 µM
  increase in dead-cell fraction: 0.0196
[2]; 3.162 µM
  increase in dead-cell fraction: 0.0256
LEE011/Ribociclib; 0.001 µM
  increase in dead-cell fraction: 0.0109
LEE011/Ribociclib; 0.003162 µM
  increase in dead-cell fraction: 0.0057
LEE011/Ribociclib; 0.01 µM
  increase in dead-cell fraction: 0.0072
LEE011/Ribociclib; 0.03162 µM
  increase in dead-cell fraction: 0.0158
LEE011/Ribociclib; 0.1 µM
  increase in dead-cell fraction: 0.0086
LEE011/Ribociclib; 0.3162 µM
  increase in dead-cell fraction: 0.0122
LEE011/Ribociclib; 1 µM
  increase in dead-cell fraction: 0.0254
LEE011/Ribociclib; 3.162 µM
  increase in dead-cell fraction: 0.0157
LEE011/Ribociclib; 10 µM
  increase in dead-cell fraction: 0.0109
Flavopiridol [3]; 0.0001 µM
  increase in dead-cell fraction: 0.0042
Flavopiridol [3]; 0.0003162 µM
  increase in dead-cell fraction: 0.0024
Flavopiridol [3]; 0.001 µM
  increase in dead-cell fraction: -0.0008
Flavopiridol [3]; 0.003162 µM
  increase in dead-cell fraction: 0.0046
Flavopiridol [3]; 0.01 µM
  increase in dead-cell fraction: -0.0017
Flavopiridol [3]; 0.03162 µM
  increase in dead-cell fraction: 0.003
Flavopiridol [3]; 0.1 µM
  increase in dead-cell fraction: 0.0067
Flavopiridol [3]; 0.3162 µM
  increase in dead-cell fraction: 0.0397
Flavopiridol [3]; 1 µM
  increase in dead-cell fraction: 0.274
[4]; 0.0001 µM
  increase in dead-cell fraction: -0.0025
[4]; 0.0003162 µM
  increase in dead-cell fraction: -0.0015
[4]; 0.001 µM
  increase in dead-cell fraction: -0.0013
[4]; 0.003162 µM
  increase in dead-cell fraction: -0.002
[4]; 0.01 µM
  increase in dead-cell fraction: 0.0053
[4]; 0.03162 µM
  increase in dead-cell fraction: 0.207
[4]; 0.1 µM
  increase in dead-cell fraction: 0.246
[4]; 0.3162 µM
  increase in dead-cell fraction: 0.265
[4]; 1 µM
  increase in dead-cell fraction: 0.249
BSJ-03-123; 0.001 µM
  increase in dead-cell fraction: 0.0078
BSJ-03-123; 0.003162 µM
  increase in dead-cell fraction: 0.0052
BSJ-03-123; 0.01 µM
  increase in dead-cell fraction: 0.0155
BSJ-03-123; 0.03162 µM
  increase in dead-cell fraction: 0.004
BSJ-03-123; 0.1 µM
  increase in dead-cell fraction: 0.0074
BSJ-03-123; 0.3162 µM
  increase in dead-cell fraction: 0.0224
BSJ-03-123; 1 µM
  increase in dead-cell fraction: 0.0243
BSJ-03-123; 3.162 µM
  increase in dead-cell fraction: 0.0241
BSJ-03-123; 10 µM
  increase in dead-cell fraction: 0.0415
THZ1 [5]; 0.0001 µM
  increase in dead-cell fraction: -0.0007
THZ1 [5]; 0.0003162 µM
  increase in dead-cell fraction: -0.0012
THZ1 [5]; 0.001 µM
  increase in dead-cell fraction: -0.0015
THZ1 [5]; 0.003162 µM
  increase in dead-cell fraction: -0.0036
THZ1 [5]; 0.01 µM
  increase in dead-cell fraction: 0.0152
THZ1 [5]; 0.03162 µM
  increase in dead-cell fraction: 0.0225
THZ1 [5]; 0.1 µM
  increase in dead-cell fraction: 0.175
THZ1 [5]; 0.3162 µM
  increase in dead-cell fraction: 0.221
THZ1 [5]; 1 µM
  increase in dead-cell fraction: 0.139
THZ531; 0.0001 µM
  GR value: 1.09 GR
THZ531; 0.0003162 µM
  GR value: 0.953 GR
THZ531; 0.001 µM
  GR value: 0.521 GR
THZ531; 0.003162 µM
  GR value: 0.917 GR
THZ531; 0.01 µM
  GR value: 1.1 GR
THZ531; 0.03162 µM
  GR value: 0.881 GR
THZ531; 0.1 µM
  GR value: -0.388 GR
THZ531; 0.3162 µM
  GR value: -0.861 GR
THZ531; 1 µM
  GR value: -0.675 GR
[6]; 0.0003162 µM
  GR value: 1.12 GR
[6]; 0.001 µM
  GR value: 1.05 GR
[6]; 0.003162 µM
  GR value: 1.11 GR
[6]; 0.01 µM
  GR value: 0.918 GR
[6]; 0.03162 µM
  GR value: 0.735 GR
[6]; 0.1 µM
  GR value: 0.668 GR
[6]; 0.3162 µM
  GR value: 0.619 GR
[6]; 1 µM
  GR value: 0.611 GR
[6]; 3.162 µM
  GR value: 0.544 GR
Flavopiridol [7]; 0.0001 µM
  GR value: 1.17 GR
Flavopiridol [7]; 0.0003162 µM
  GR value: 0.998 GR
Flavopiridol [7]; 0.001 µM
  GR value: 0.895 GR
Flavopiridol [7]; 0.003162 µM
  GR value: 0.878 GR
Flavopiridol [7]; 0.01 µM
  GR value: 0.801 GR
Flavopiridol [7]; 0.03162 µM
  GR value: 0.959 GR
Flavopiridol [7]; 0.1 µM
  GR value: 0.935 GR
Flavopiridol [7]; 0.3162 µM
  GR value: 0.154 GR
Flavopiridol [7]; 1 µM
  GR value: -0.753 GR
THZ1 [8]; 0.0001 µM
  GR value: 1 GR
THZ1 [8]; 0.0003162 µM
  GR value: 0.971 GR
THZ1 [8]; 0.001 µM
  GR value: 0.687 GR
THZ1 [8]; 0.003162 µM
  GR value: 0.659 GR
THZ1 [8]; 0.01 µM
  GR value: 0.571 GR
THZ1 [8]; 0.03162 µM
  GR value: 0.441 GR
THZ1 [8]; 0.1 µM
  GR value: -0.627 GR
THZ1 [8]; 0.3162 µM
  GR value: -0.683 GR
THZ1 [8]; 1 µM
  GR value: -0.617 GR
